Structures can show the parent of a compound that is named as a salt. Where two headings read alike, the source gives them in different places.
Assays:
KB cell = experiment: Cancer cell growth inhibitory activity (KB cells, MTT colorimetric determination); assay type: cell-based, human
Procedure: In order to evaluate tyrosine kinase inhibitory activity and cancer cell growth inhibitory activity for tyrosine kinase inhibitor of the invention, tests were carried out in partially purified human EGF (epidermal growth factor) receptor tyrosine kinase activity detemination system and in a cell incubation system using human cancer cells. Furthermore, in order to compare and evaluate strength of inhibitory activity, relatively higher active ones amongst known tyrosine kinase inhibitors disclosed in patents or literatures were tested simultaneously.
Accordingly, the KB cell was used to evaluate the effect of test compounds on the growth of cultured cancer cells.
KB cells were plated on a 96-well dish (2.5x 10^3 cell/well) and cultured for 24 hours at 37 ° C under 5% C02 atmosphere in DMEM:F12 (1:1) medium containing 10% FCS, 50 µg/ml penicillin, and 50µg/ml streptomycin. To the culture medium was added a test compound dissolved in DMSO (DMSO final concentration < 0.1%), and the cells were cultured for three days under the same conditions. The test compound was exchanged every 24 hours together with the culture medium.
The amount of living cells were measured by calorimetric determination at wave lengths of 550 nm and 650 nm after developing colour by MTT (3-[4,5-Dimethylthiazol-2-yl]-2,5-diphenyltetrazolium bromide), in accordance with the method of Michael C. Alley et al. (Cancer Research 48 589, 1988).
Cancer cell growth inhibitory activity (CCGIA) was determined according to the following equation. [formula] Symbols "a" and "b" represent the colorimetric values determined in the cancer cell growth assay with and without the test compounds, respectively.

[1] = target: T1, partially purified human EGF (epidermal growth factor) receptor tyrosine kinase (Homo sapiens, UniProt P00533); experiment: biochemical
T1 construct: The cell membrane fraction, a partially purified EGF receptor, was used as an enzyme source; endogenous in cells; host or cells: A431 human epidermoid carcinoma cells (membrane fraction, 10000xg pellet)
T1 sequence (P01133 971-1023): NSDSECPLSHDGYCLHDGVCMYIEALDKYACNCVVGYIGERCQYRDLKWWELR
T1 sequence (P00533 25-1210): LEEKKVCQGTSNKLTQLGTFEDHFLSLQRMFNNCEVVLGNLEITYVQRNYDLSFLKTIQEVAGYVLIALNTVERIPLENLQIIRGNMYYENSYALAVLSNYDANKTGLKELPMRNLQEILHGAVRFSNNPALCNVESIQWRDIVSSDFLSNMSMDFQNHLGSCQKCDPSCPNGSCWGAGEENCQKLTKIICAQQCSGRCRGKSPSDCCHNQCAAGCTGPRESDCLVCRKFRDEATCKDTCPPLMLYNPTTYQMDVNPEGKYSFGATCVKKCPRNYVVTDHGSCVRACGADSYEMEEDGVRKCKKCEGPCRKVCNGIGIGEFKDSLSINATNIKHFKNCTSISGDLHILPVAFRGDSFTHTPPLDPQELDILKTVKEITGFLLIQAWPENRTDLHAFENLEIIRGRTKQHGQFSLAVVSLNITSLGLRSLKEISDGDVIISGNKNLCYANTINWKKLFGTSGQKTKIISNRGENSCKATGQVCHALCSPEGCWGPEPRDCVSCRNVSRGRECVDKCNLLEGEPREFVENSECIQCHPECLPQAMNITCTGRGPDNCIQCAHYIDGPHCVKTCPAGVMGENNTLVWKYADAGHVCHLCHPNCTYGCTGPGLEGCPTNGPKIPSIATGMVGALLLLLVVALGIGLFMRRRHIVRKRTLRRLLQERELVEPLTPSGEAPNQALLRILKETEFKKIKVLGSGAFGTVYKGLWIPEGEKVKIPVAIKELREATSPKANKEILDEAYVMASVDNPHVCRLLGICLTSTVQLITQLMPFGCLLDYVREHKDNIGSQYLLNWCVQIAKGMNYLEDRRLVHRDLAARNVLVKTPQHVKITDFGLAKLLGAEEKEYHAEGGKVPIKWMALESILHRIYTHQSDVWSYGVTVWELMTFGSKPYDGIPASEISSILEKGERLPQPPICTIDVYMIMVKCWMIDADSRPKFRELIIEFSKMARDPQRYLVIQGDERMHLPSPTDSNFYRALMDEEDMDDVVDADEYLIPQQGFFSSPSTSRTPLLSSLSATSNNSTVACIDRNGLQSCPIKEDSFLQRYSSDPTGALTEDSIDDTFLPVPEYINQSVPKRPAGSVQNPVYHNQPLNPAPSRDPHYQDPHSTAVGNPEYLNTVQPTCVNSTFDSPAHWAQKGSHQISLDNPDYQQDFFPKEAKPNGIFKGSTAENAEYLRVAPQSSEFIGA

[2] = Homo sapiens, 72 h; Table-3; KB cells, three days culture, MTT; 3) fumarate, 4) hydrochloride
[3] = Table-2; […]; 3) fumarate, 4) hydrochloride, read-out: Tyrosine kinase inhibitory activity (IC50)
[4] = Table-2 continued; […]; 4) hydrochloride, read-out: Tyrosine kinase inhibitory activity (IC50, μ)

Row | SMILES | IC50 (KB cell; [2]) [nM] | IC50 [1, 3] [nM] | IC50 [1, 4] [nM] | IC50 (KB cell; Table-3; KB cells, three days culture, MTT; 3) fumarate, 4) hydrochloride) [nM]
1 | N#CC(=Cc1ccc(O)c(O)c1)C(=O)Nc1ccccc1 [[drawing] 1)] | 17000 | – | – | –
2 | CCOc1cc(C=C(C#N)C(N)=O)cc(CSc2ccccc2)c1O [[drawing] 2)] | 52000 | 3200 | – | –
3 | C#CC(=O)c1ccc(OC)c(OC)c1 [compound 2] | 13000 | – | – | –
4 | COc1ccc(C(=O)C#CC(C)(C)C)cc1OC [compound 8] | 2200 | – | – | –
5 | COc1ccc(C(=O)C#Cc2ccccc2)cc1OC [compound 19] | 2650 | 670 | – | –
6 | COc1ccc(C(=O)C#Cc2ccccn2)cc1OC [compound 69] | 1520 | 240 | – | –
7 | COc1ccc(C(=O)C#CC(=O)Nc2ccccc2)cc1OC [compound 197] | – | 1000 | – | –
8 | CCN(CC)CC#CC(=O)c1ccc(OC)c(OC)c1 [compound 222] | 840 | – | 13 | –
9 | COc1ccc(C(=O)C#CCN(C(C)C)C(C)C)cc1OC [compound 242] | 2100 | 35 | – | –
10 | COc1ccc(C(=O)C#CCN2CCCCC2)cc1OC [compound 287] | 1600 | 470 | – | –
11 | COc1ccc(C(=O)C#CCN2C(C)(C)CCCC2(C)C)cc1OC [compound 313] | 1000 | 180 | – | –
12 | COc1ccc(C(=O)C#CCNC(=O)OC(C)(C)C)cc1OC [compound 388] | 1100 | – | 69 | –
13 | COc1ccc(C(=O)C#CC(C)(C)N)cc1OC [compound 395, 4-amino-1-(3,4-dimethoxy)phenyl-1-oxo-4-methyl-2-pentyne hydrochloride] | – | 39 | – | –
14 | COc1ccc(C(=O)C#CC(C)(C)N(C)C)cc1OC [compound 402] | 930 | – | 330 | –
15 | CCN(CC)C(C)(C)C#CC(=O)c1ccc(OC)c(OC)c1 [compound 410] | 690 | 730 | – | –
16 | CCN(CC)C(C)(C#CC(=O)c1ccc(OC)c(OC)c1)C(C)C (centres unmarked) [compound 455] | 560 | 2900 | – | –
17 | COc1ccc(C(=O)C#CC(C)(C)N2CCCCC2)cc1 [compound 476] | 550 | – | – | –
18 | COc1ccc(C(=O)C#CC(C)(C)N2CCCCC2)cc1OC [compound 477] | 640 | 1300 | – | –
19 | CC(C)(C#CC(=O)c1ccc(Cl)c(Cl)c1)N1CCCCC1 [compound 480] | 510 | – | – | –
20 | CC(C)(C#CC(=O)c1ccc2c(c1)OCO2)N1CCCCC1 [compound 482] | 300 | – | – | –
21 | CC(C)(C#CC(=O)c1ccc(F)cc1)N1CCCCC1 [compound 483] | 340 | – | – | –
22 | CSc1ccc(C(=O)C#CC(C)(C)N2CCCCC2)cc1 [compound 484] | 410 | 1300 | – | –
23 | CN(C)c1ccc(C(=O)C#CC(C)(C)N2CCCCC2)cc1 [compound 485] | 690 | – | – | –
24 | COc1cc(C(=O)C#CC(C)(C)N2CCCCC2)cc2c1OCO2 [compound 500] | 480 | 350 | – | –

Row | SMILES | IC50 (KB cell; [2]) [nM] | IC50 [1, 3] [nM] | IC50 [1, 4] [nM] | IC50 (KB cell; Table-3; KB cells, three days culture, MTT; 3) fumarate, 4) hydrochloride) [nM]
25 | CC(C)(C#CC(=O)c1cc2c(cc1[N+](=O)[O-])OCO2)N1CCCCC1 [compound 501] | 1480 | – | – | –
26 | CCN(CC)C1(C#CC(=O)c2ccc(OC)c(OC)c2)CCCCC1 [compound 555] | 460 | 1700 | – | –
27 | COc1ccc(C(=O)C#CC(C)(C)O)cc1OC [compound 613] | 1410 | 150 | – | –
28 | COc1ccc(C(=O)C#CC(C)(C)NC(=O)OCc2ccccc2)cc1OC [compound 619] | 1100 | 660 | – | –
29 | COc1ccc(C(=O)C#CC(O)(C(C)C)C(C)C)cc1OC [compound 627] | 680 | – | – | –
30 | COc1ccc(C(=O)C#C[Si](C)(C)C)cc1OC [compound 633] | 14500 | – | – | –
31 | COc1ccc(C(=O)C#CC(C)(C)Nc2cccc(Cl)c2)cc1OC [compound 642] | 1500 | – | 96 | –
32 | COc1ccc(C(=O)C#CC(C)(C)Nc2ccccc2)cc1OC [compound 643] | 1100 | – | 120 | –
33 | COc1ccc(C(=O)C#CC(C)(C)NCC(C)C)cc1OC [compound 644] | 2800 | – | 66 | –
34 | COc1ccc(C(=O)C#CC(C)(C)Nc2c(C)cccc2C)cc1OC [compound 645] | 3400 | – | 2200 | –
35 | COc1ccc(C(=O)C#CC(C)(C)Nc2cccnc2)cc1OC [compound 646] | 2800 | – | 300 | –
36 | COc1ccc(C(=O)C#CC(C)(C)NCc2ccccc2)cc1OC [compound 647] | 790 | – | 190 | –
37 | COc1ccc(C(=O)C#CC(C)(C)NCCc2c[nH]c3ccccc23)cc1OC [compound 648] | 1600 | – | 37 | –
38 | COc1ccc(C(=O)C#CC(C)(C)NC(=O)OCc2cccnc2)cc1OC [compound 649] | 1100 | 960 | – | –
39 | COc1ccc(C(=O)C#CC(C)(C)NC(=O)OCc2ccc[n+](C)c2)cc1OC [compound 650] | – | – | – | 6500
40 | COc1ccc(C(=O)C#CC(C)(C)NC(=O)OCc2ccc[n+]([O-])c2)cc1OC [compound 651] | 3500 | 660 | – | –
41 | COc1ccc(C(=O)C#CC(C)(C)NS(=O)(=O)c2ccc(OC)c(OC)c2)cc1OC [compound 652] | 1300 | – | – | –
42 | COc1ccc(C(=O)C#CC(C)(NCCCO)C(C)C)cc1OC (centres unmarked) [compound 654] | 1000 | – | 940 | –
43 | COc1ccc(C(=O)C#CC(C)(C(C)C)N(C)CCCO)cc1OC (centres unmarked) [compound 655] | 2100 | – | – | –
44 | COc1cccc(C(=O)C#CC(C)(C)N2CCCCC2)c1OC [compound 664] | 680 | – | 930 | –
45 | COc1ccc(OC)c(C(=O)C#CC(C)(C)N2CCCCC2)c1 [compound 665] | 270 | – | 1400 | –
46 | CC(C)(C#CC(=O)c1ccc(S(C)(=O)=O)cc1)N1CCCCC1 [compound 666] | 2200 | – | 2600 | –
47 | CC(C)(C)c1cc(C(=O)C#CC(C)(C)N2CCCCC2)cc(C(C)(C)C)c1O [compound 667] | 120 | – | – | –

— EP0645379A2, “Benzoylacetylene derivatives” (priority 1993, dated 1995)
